Laboratory results: patent publication US12122816B2, “Long acting peptide tyrosine tyrosine (PYY) analogs and methods of use” (Intarcia Therapeutics, Inc., priority 2020, dated 2024)
pEC50: −log10 of the molar value.

What was measured:
human Y2 receptor = target: T1, human Y2 receptor (Homo sapiens, UniProt P49146); test: NPY receptor functional assay (cAMP, HEK-CNG cells, ACTOne membrane potential dye); format: cell-based; conditions: NPY2R pEC50, HEK-CNG cells; standard PYY(3-36); species (human or rat) not given
T1 sequence (P49146 1-381): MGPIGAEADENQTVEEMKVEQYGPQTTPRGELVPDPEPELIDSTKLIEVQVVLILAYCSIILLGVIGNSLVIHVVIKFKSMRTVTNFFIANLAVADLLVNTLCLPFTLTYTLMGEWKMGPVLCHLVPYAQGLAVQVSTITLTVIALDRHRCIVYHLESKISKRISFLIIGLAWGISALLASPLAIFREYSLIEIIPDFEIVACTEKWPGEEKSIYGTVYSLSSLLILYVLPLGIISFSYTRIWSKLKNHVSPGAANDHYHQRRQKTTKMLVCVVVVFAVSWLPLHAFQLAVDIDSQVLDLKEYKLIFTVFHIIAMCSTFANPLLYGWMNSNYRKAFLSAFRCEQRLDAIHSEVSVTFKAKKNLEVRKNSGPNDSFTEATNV
In short: (§1)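 HEK-CNG cells stably expressing each human receptor; peptides added in triplicate for 50 minutes at room temperature, with agonism read as decreased isoproterenol-induced membrane potential dye signal (final/initial read).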

human Y5 receptor = target: T2, human Y5 receptor (Homo sapiens, UniProt Q15761); test: as above; format: cell-based; conditions: NPY5R pEC50, HEK-CNG cells; standard NPY; species (human or rat) not given
T2 sequence (Q15761 1-445): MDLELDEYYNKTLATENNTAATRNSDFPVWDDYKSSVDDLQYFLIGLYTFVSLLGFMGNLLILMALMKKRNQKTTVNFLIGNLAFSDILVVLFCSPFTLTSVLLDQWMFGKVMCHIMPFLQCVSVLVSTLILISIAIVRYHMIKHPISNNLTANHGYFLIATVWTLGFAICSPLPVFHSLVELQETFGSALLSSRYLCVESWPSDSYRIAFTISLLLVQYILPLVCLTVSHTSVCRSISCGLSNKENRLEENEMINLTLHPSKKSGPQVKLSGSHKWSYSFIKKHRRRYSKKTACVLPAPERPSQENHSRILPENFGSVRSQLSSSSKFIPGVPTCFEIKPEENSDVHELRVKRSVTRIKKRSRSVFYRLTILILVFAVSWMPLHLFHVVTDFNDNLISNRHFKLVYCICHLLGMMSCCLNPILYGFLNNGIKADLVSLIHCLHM
In short: as §1

[1] = In vitro metabolic stability in kidney brush border membranes (kBBM); format: in vitro ADME; conditions: pH 7.4, human kBBM 50 mcg protein/mL, 1 mcM peptide, 37° C., read-out: hkBBM t½ (converted)
Method: In vitro incubations in kidney brush border membrane (kBBM) preparations were used to characterize the ability of peptides to resist degradation by proteases and peptidases in the systemic circulation. kBBM were selected because they contain a high concentration of a diverse set of proteases and peptidases, many of which are present throughout the body.
Brush border membranes from rat and human kidney tissue were prepared via centrifugation and stored at −70° C. Thawed stocks of rat or human kBBM were diluted to the appropriate concentration in 25 mM HEPES buffer (pH 7.4) containing 1% casein and aliquoted into a 96-well plate. The kBBM solutions were pre-warmed for 10 minutes at 37° C. […] The final concentration of kBBM in each incubation was 50 mcg protein/mL. Reactions were maintained at 37° C. in a shaking water bath. […] Quenched samples were centrifuged at 2178×g for 10 min and then a portion of the supernatants were transferred to a clean 96-well plate and diluted 1:1 with water. Samples were analyzed by UPLC-MS/MS.

[2] = In vitro stability in subcutaneous (SC) tissue homogenates; format: in vitro ADME; conditions: subcutaneous tissue homogenate, pH 7.4; human SC tissue homogenate 1.0 mg protein/mL, 10 mcM peptide, 37° C.; read-out: (H)SC tissue stability t½ (converted)
Method: In vitro incubations in subcutaneous (SC) tissue homogenates were used to characterize the ability of peptides to resist pre-systemic degradation by proteases and peptidases after SC administration. […] Peptides with high SC bioavailability are stable in this assay, while peptides with low SC bioavailability are unstable in this assay.
Human SC tissue was homogenized in cold 25 mM HEPES buffer (pH 7.4, 10-fold volume based on sample weight), and then filtered through a double layer of cheesecloth. The filtrates were aliquoted, flash frozen on a methanol/dry ice bath and stored at −80° C. The protein concentration of each pooled batch was determined using the BCA protein assay. Thawed stocks of human SC tissue homogenates were diluted to 1.0 mg protein/mL in 25 mM HEPES buffer (pH 7.4) and aliquoted into a 96-well plate. The diluted SC homogenates were pre-warmed for 10 minutes at 37° C. […] Reactions were maintained at 37° C. in a shaking water bath. […] Quenched samples were centrifuged at 2178×g for 10 min and then a portion of the supernatants were transferred to a clean 96-well plate and diluted 1:10 with water. Samples were analyzed by UPLC-MS/MS.

human Y1 receptor = target: T3, human Y1 receptor (Homo sapiens, UniProt P25929); test: NPY receptor functional assay (cAMP, HEK-CNG cells, ACTOne membrane potential dye); format: cell-based
T3 sequence (P25929 1-384): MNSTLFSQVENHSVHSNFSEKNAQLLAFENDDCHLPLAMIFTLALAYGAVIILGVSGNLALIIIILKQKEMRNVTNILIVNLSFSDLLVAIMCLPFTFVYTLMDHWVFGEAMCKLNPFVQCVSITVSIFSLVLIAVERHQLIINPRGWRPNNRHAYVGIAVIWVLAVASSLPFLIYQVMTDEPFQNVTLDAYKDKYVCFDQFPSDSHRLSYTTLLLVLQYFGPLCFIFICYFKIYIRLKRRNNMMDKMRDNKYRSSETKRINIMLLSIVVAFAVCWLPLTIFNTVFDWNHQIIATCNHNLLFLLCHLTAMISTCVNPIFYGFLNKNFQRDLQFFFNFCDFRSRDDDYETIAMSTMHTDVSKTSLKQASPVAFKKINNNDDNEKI
Source text: The NPY family of G-protein coupled receptors include Y1, Y2, Y4, and Y5 in humans and rats. […] Following agonist binding, the receptor-G protein complex activates a downstream intracellular signaling cascade which leads to inhibition of adenylate cyclase and a reduction in intracellular cAMP levels.
HEK-CNG cells stably expressing the human or rat Y1, Y2, Y4 or Y5 receptors (Codex Biosolutions) were used to characterize the functional potency of peptide agonists using the ActOne™ membrane potential dye kit (Codex Biosolutions). In addition to each NPY receptor, each cell line encodes a proprietary exogenous Cyclic Nucleotide-Gated (CNG) channel (Codex Biosolutions). The channel is activated by elevated intracellular levels of cAMP, resulting in ion flux and cell membrane depolarization which can be detected with a calcium sensitive dye or fluorescent membrane potential (MP) dye. Cells were carried in growth media containing 90% DMEM, 10% FBS, 250 mcg/mL G418 and 1 mcg/mL puromycin for no more than 15 passages.
Prior to testing, cells were counted and dispensed at 14,000 cells per well (Y1, Y4 and Y5) or 28,000 cells per well (Y2) into black 384 well Poly-D-Lysine plates at 20 mcL per well. Covered plates were then incubated at room temperature for 30 minutes followed by an overnight incubation at 37° C. in 5% C02. The following day, media was removed and wells were washed once with 40 mcL Dulbecco's phosphate buffered saline. […] Ten microliters of experimental peptide or peptide standard was added in triplicate to wells and incubated for 50 minutes at room temperature in the dark. Following this incubation step, plates were read again as before (final read).
NPY receptor activation, leading to a reduction in intracellular cAMP levels, is detected as a decrease in isoproteranol induced fluorescent signal. Peptide standard and experimental values were initially transformed in excel using the formula: final read/initial read. […] Normalized data was analyzed from triplicate tests and used to estimate the EC50 for each test peptide on each receptor. Data was fit in GraphPad Prism software (v8.2.1) using a 3-parameter logistic curve model: Y=Bottom+(Top−Bottom)/(1+10^((LogEC50−X))). EC50 values were converted to pEC50 values using the formula: pEC50=−Log(EC50).

| Compound | pEC50 (human Y2 receptor) | pEC50 (human Y5 receptor) | half-life at 1 mcM [1] | half-life at 10 mcM [2] | pEC50 (human Y1 receptor) |
| --- | --- | --- | --- | --- | --- |
| CC(C)C[C@H](NC(=O)[C@H](CC(=O)O)NC(=O)[C@H](CCCCN)NC(=O)[C@H](Cc1ccc(O)cc1)NC(=O)[C@H](Cc1ccc(O)cc1)NC(=O)[C@H](CCCNC(=N)N)NC(=O)[C@H](CC(=O)O)NC(=O)[C@H](Cc1c[nH]c2ccccc12)NC(=O)[C@H](CCC(=O)O)NC(=O)[C@H](CCCCN)NC(=O)[C@@H]1CCCN1C(=O)[C@H](CO)NC(=O)[C@H](C)NC(=O)[C@H](CC(=O)O)NC(=O)[C@H](CCC(=O)O)NC(=O)CNC(=O)[C@@H]1CCCN1C(=O)[C@H](CCCCNC(=O)CC[C@H](NC(=O)CC[C@H](NC(=O)CCCCCCCCCCCCCCCCC(=O)O)C(=O)O)C(=O)O)NC(=O)[C@H](CCC(=O)O)NC(=O)[C@@H]1CCCN1C(=O)[C@H](CCCCN)NC(=O)[C@@H]1CCCN1)C(=O)N[C@@H](CCCNC(=N)N)C(=O)N[C@@H](Cc1c[nH]cn1)C(=O)N[C@@H](Cc1ccc(O)cc1)C(=O)N[C@@H](CC(C)C)C(=O)N[C@@H](CC(N)=O)C(=O)N[C@@H](Cc1c[nH]c2ccccc12)C(=O)N[C@@H](CC(C)C)C(=O)N[C@H](C(=O)N[C@@H](CCCNC(=N)N)C(=O)N[C@@H](CCC(N)=O)C(=O)N[C@@H](CCCNC(=N)N)C(=O)N[C@@H](Cc1ccccc1)C(N)=O)[C@@H](C)O [Compound A35] | 10.50 | 9.10 | 5.6 h | 1.3 h |  |
| CC(C)C[C@H](NC(=O)[C@H](CC(=O)O)NC(=O)[C@H](CCCCN)NC(=O)[C@H](Cc1ccc(O)cc1)NC(=O)[C@H](Cc1ccc(O)cc1)NC(=O)[C@H](CCCNC(=N)N)NC(=O)[C@H](CC(N)=O)NC(=O)[C@H](Cc1c[nH]c2ccccc12)NC(=O)[C@H](CCC(=O)O)NC(=O)[C@H](CCCCN)NC(=O)[C@@H]1CCCN1C(=O)[C@H](CO)NC(=O)[C@H](C)NC(=O)[C@H](CC(=O)O)NC(=O)[C@H](CCC(=O)O)NC(=O)CNC(=O)[C@@H]1CCCN1C(=O)[C@H](CCCCNC(=O)CC[C@H](NC(=O)CC[C@H](NC(=O)CCCCCCCCCCCCCCCCC(=O)O)C(=O)O)C(=O)O)NC(=O)[C@H](CCC(=O)O)NC(=O)[C@@H]1CCCN1C(=O)[C@H](CCCCN)NC(=O)[C@@H]1CCCN1)C(=O)N[C@@H](CCCNC(=N)N)C(=O)N[C@@H](Cc1c[nH]cn1)C(=O)N[C@@H](Cc1ccc(O)cc1)C(=O)N[C@@H](CC(C)C)C(=O)N[C@@H](CC(N)=O)C(=O)N[C@@H](Cc1c[nH]c2ccccc12)C(=O)N[C@@H](CC(C)C)C(=O)N[C@H](C(=O)N[C@@H](CCCNC(=N)N)C(=O)N[C@@H](CCC(N)=O)C(=O)N[C@@H](CCCNC(=N)N)C(=O)N[C@@H](Cc1ccccc1)C(N)=O)[C@@H](C)O [Compound A38] |  | 8.40 |  |  | 8.60 |
| CC(C)C[C@H](NC(=O)[C@H](Cc1ccc(O)cc1)NC(=O)[C@H](Cc1c[nH]cn1)NC(=O)[C@H](CCCNC(=N)N)NC(=O)[C@H](CC(C)C)NC(=O)[C@H](CC(=O)O)NC(=O)[C@@H](CCCCNC(=O)CC[C@H](NC(=O)COCCOCCNC(=O)COCCOCCNC(=O)CC[C@H](NC(=O)CCCCCCCCCCCCCCCCCCC(=O)O)C(=O)O)C(=O)O)NC(=O)[C@H](Cc1ccc(O)cc1)NC(=O)[C@H](Cc1ccc(O)cc1)NC(=O)[C@H](CCCNC(=N)N)NC(=O)[C@H](CC(N)=O)NC(=O)[C@H](Cc1c[nH]c2ccccc12)NC(=O)[C@H](CCC(=O)O)NC(=O)[C@H](CCC(=O)O)NC(=O)[C@@H]1CCCN1C(=O)[C@H](CO)NC(=O)[C@H](C)NC(=O)[C@H](CC(=O)O)NC(=O)[C@H](CCCCN)NC(=O)CNC(=O)[C@@H]1CCCN1C(=O)[C@H](C)NC(=O)[C@H](CCC(=O)O)NC(=O)[C@@H]1CCCN1C(=O)[C@H](CCCCN)NC(=O)[C@@H]1CCCN1)C(=O)N[C@@H](CC(N)=O)C(=O)N[C@@H](Cc1c[nH]c2ccccc12)C(=O)N[C@@H](CC(C)C)C(=O)N[C@H](C(=O)N[C@@H](CCCNC(=N)N)C(=O)N[C@@H](CCC(N)=O)C(=O)N[C@@H](CCCNC(=N)N)C(=O)N[C@@H](Cc1ccccc1)C(N)=O)[C@@H](C)O [Compound A65] | 10.20 | 8.60 |  |  | 8.00 |
